# Measurements taken from PMC12700550, “DLL4^+ neutrophils promote Notch1-mediated endothelial PANoptosis to exacerbate acute lung injury in sepsis” (The Journal of Clinical Investigation, 2025).
# B1: DLL4: Recombinant murine DLL4, R&D Systems (protein)
# chain: GSGIFQLRLQEFVNQRGMLANGQSCEPGCRTFFRICLKHFQATFSEGPCTFGNVSTPVLGTNSFVVRDKNSGSGRNPLQLPFNFTWPGTFSLNIQAWHTPGDDLRPETSPGNSLISQIIIQGSLAVGKIWRTDEQNDTLTRLSYSYRVICSDNYYGESCSRLCKKRDDHFGHYECQPDGSLSCLPGWTGKYCDQPICLSGCHEQNGYCSKPDECICRPGWQGRLCNECIPHNGCRHGTCSIPWQCACDEGWGGLFCDQDLNYCTHHSPCKNGSTCSNSGPKGYTCTCLPGYTGEHCELGLSKCASNPCRNGGSCKDQENSYHCLCPPGYYGQHCEHSTLTCADSPCFNGGSCRERNQGSSYACECPPNFTGSNCEKKVDRCTSNPCANGGQCQNRGPSRTCRCRPGFTGTHCELHISDCARSPCAHGGTCHDLENGPVCTCPAGFSGRRCEVRITHDACASGPCFNGATCYTGLSPNNFVCNCPYGFVGSRCEFPVGLPPSFPWVA
# How the values were obtained:
# ZBP1 [1] = assay: ZBP1 mRNA in PVECs cocultured with neutrophils, RT-PCR (DAPT, NDI, peptides 1–5); type: cell-based, mouse; details: DAPT, DLL4^+ neutrophil–PVEC coculture
# Procedure: Immortalized mouse (Mus musculus) lung endothelial cells with polyoma middle T (PVECs) were purchased from Applied Biological Materials Inc. (ABM) and grown in 1:1 PriGrow VI Medium and PriGrow IV Medium (ABM).
# (§1) Wild-type PVECs (5 × 10^5) were cocultured with sorted DLL4^+ neutrophils (5 × 10^5) or DLL4^– neutrophils (5 × 10^5) and then treated with different dosages of peptides or 10 μM DAPT (Thermo Fisher Scientific), 10 μM NDI (GenScript), or 10 μM NDI scramble (GenScript). Notch1-knockdown PVECs (5 × 10^5) were cocultured with sorted DLL4^+ neutrophils (5 × 10^5). After 16 hours, neutrophils were washed away by PBS, and PVECs were collected for further experiments. Cell viability was evaluated by propidium iodide staining using the FITC Annexin V Apoptosis Detection Kit I (catalog 556547, BD Pharmingen). Cell death was quantified as the percentage of propidium iodide–positive cells by flow cytometry.
# mRNA was extracted from lung tissues with TRIzol reagent (Invitrogen, Thermo Fisher Scientific). An equal amount ([…]) of mRNA was reverse-transcribed into cDNA using the reverse transcriptase enzyme (Invitrogen, Thermo Fisher Scientific). qPCR was performed from the diluted cDNA templates with forward and reverse primers (Supplemental Table 4) and SYBR Green PCR Master Mix (Applied Biosystems, Thermo Fisher Scientific) using an Applied Biosystems 7300 real-time PCR machine. Mouse β-actin served as an internal control gene for normalization. Relative expression of mRNA was represented as fold change in comparison with the sham group.
# ZBP1 [2] = assay: ZBP1 protein in PVECs cocultured with neutrophils, Western blot; type: cell-based, mouse; details: DAPT
# Procedure: as §1
# (§2) PVECs and lung tissue were collected in previous steps. Whole-cell proteins were extracted, and the protein concentration was measured using an ABC protein assay kit (catalog 5000002, Bio-Rad). Proteins were separated using NuPAGE 4%–12% Bis-Tris gels (Invitrogen), transferred to PVDF membranes, and immunoblotted with the antibodies indicated in the figure legends according to the manufacturer’s recommendations. The ZBP1 antibody (catalog PA5-20455; 1:1,000) used in this study was obtained from Thermo Fisher Scientific, and the c-GSDMD (catalog 10137S; 1:250), GSDMD (catalog 39754S; 1:1000), c-caspase-3 (catalog 9661L; 1:250), caspase-3 (catalog 9662S; 1:1,000), p-MLKL (catalog 37333S; 1:250), MLKL (catalog 37705S; 1:1,000), N1ICD (c-Notch1) (catalog 4147S; 1:250), and Notch1 (catalog 3608S; 1:1,000) antibodies were obtained from Cell Signaling Technology. GAPDH (catalog 60004-1-Ig; 1:10,000) and β-actin (catalog A5441, Sigma-Aldrich; 1:5,000) were obtained from ProteinTech. After the blots were incubated with primary antibodies, the membranes were washed 3 times, and the blots were subsequently incubated with the corresponding fluorescent secondary antibody (LI-COR). Bands were detected using an Odyssey FC Dual-Mode Imaging system 2800 (LI-COR).
# c-GSDMD = assay: c/t GSDMD (pyroptosis) in PVECs cocultured with neutrophils, Western blot; type: cell-based, mouse; details: DAPT
# Procedure: as §1, §2
# c-caspase-3 = assay: c/t caspase-3 (apoptosis) in PVECs cocultured with neutrophils, Western blot; type: cell-based, mouse; details: DAPT
# Procedure: as §1, §2
# p-MLKL = assay: p-MLKL/MLKL (necroptosis) in PVECs cocultured with neutrophils, Western blot; type: cell-based, mouse; details: DAPT
# Procedure: as §1, §2
# [3] = target: Recombinant murine (rm) Notch1 (murine) (UniProt Q01705); assay: SPR; as a1, same HS-NTA sensor with rmNotch1; rmDLL4 at all concentrations preincubated with 1 ug/mL NDI for 30 minutes at room temperature before injection; 40 uL/min, 20°C; global 1:1 fit
# Chain of Recombinant murine (rm) Notch1 (murine) (Q01705 19-2531): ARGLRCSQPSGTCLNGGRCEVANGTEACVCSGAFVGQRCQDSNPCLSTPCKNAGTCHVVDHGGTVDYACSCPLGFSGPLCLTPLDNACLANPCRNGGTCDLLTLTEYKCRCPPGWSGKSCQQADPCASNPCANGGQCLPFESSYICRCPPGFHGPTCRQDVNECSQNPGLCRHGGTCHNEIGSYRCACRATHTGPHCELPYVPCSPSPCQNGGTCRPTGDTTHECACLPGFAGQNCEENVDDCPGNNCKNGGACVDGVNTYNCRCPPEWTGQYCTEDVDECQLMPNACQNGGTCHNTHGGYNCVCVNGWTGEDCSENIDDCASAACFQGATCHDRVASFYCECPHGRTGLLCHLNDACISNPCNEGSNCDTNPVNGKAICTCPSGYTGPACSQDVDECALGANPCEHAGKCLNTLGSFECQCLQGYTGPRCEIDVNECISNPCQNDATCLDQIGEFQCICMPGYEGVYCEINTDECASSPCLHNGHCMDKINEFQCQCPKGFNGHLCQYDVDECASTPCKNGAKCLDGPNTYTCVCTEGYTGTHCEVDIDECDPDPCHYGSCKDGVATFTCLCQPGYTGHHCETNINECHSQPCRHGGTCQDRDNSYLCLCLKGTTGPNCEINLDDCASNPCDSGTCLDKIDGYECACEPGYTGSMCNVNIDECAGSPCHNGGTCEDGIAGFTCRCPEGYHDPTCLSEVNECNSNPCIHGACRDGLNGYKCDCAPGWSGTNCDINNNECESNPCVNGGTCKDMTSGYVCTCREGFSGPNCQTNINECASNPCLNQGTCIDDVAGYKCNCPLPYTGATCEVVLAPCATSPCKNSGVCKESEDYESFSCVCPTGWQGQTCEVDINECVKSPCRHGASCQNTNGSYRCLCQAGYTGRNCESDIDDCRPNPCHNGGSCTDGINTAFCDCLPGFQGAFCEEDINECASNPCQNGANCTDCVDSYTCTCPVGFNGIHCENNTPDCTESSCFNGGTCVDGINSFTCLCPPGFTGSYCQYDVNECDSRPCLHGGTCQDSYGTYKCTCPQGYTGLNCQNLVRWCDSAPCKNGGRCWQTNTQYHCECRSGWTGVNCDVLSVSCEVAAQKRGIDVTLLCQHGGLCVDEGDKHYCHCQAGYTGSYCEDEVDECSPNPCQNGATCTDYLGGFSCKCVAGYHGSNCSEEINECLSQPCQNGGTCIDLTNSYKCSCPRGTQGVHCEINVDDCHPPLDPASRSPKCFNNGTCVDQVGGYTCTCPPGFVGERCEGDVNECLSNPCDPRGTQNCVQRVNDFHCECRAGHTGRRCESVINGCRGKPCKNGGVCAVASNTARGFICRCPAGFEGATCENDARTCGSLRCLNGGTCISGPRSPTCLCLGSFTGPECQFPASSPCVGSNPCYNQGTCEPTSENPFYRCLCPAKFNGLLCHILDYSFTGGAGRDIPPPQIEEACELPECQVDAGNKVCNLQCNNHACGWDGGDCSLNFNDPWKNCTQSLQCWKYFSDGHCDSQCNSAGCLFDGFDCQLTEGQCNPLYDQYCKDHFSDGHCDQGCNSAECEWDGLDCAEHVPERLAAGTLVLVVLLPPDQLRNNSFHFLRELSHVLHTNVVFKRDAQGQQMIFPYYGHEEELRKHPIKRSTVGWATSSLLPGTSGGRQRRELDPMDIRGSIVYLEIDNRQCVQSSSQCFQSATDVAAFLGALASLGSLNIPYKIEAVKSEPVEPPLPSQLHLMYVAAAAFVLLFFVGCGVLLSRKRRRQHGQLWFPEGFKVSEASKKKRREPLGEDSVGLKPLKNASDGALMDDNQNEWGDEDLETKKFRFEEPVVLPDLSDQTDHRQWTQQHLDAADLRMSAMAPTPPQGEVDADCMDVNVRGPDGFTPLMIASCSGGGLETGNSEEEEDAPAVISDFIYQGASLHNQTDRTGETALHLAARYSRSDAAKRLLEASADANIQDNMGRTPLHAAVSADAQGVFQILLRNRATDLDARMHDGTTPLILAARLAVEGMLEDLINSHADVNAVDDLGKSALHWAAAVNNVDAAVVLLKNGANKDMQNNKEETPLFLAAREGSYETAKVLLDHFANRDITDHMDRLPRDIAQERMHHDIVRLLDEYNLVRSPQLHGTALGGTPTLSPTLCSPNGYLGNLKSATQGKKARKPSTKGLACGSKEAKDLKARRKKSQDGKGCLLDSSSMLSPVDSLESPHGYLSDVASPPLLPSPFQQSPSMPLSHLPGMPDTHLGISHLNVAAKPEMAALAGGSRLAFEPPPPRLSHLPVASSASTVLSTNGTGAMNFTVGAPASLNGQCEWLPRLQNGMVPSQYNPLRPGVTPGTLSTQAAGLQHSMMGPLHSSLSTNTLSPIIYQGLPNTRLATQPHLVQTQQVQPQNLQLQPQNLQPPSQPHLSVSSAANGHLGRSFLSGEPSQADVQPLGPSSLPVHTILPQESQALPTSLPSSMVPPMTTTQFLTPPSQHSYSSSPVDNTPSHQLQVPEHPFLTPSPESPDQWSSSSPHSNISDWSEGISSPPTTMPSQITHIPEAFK
# [4] = target: Recombinant murine (rm) Notch1 (murine) (UniProt Q01705); assay: SPR; OpenSPR (Nicoya), HS-NTA sensor activated with NiCl2; rmNotch1 (25 ug/mL) immobilised on channel 2; rmDLL4 as analyte at 5, 12.5, 50 and 100 nM, 40 uL/min; PBS, 0.005% P20, pH 7.4; channel 1 subtracted; global 1:1 fit
# rmNotch1 = target: T1, rmNotch1 (Mus musculus, UniProt Q01705); assay: BIAcore assay (surface plasmon resonance), rmDLL4 to immobilized rmNotch1; type: binding, murine; details: OpenSPR, HS-NTA sensor, rmDLL4 5–100 nM, PBS 0.005% P20 pH 7.4, 20°C, 1:1 fit; without NDI; read-out: KD between DLL4 and Notch1
# T1 construct: purchased R&D Systems 5267-TK (rmNotch1); 1389-D4-050/CF (rmDLL4)
# T1 sequence (Q01705 with tags, fused parts or gaps limits assumed, one chain of several): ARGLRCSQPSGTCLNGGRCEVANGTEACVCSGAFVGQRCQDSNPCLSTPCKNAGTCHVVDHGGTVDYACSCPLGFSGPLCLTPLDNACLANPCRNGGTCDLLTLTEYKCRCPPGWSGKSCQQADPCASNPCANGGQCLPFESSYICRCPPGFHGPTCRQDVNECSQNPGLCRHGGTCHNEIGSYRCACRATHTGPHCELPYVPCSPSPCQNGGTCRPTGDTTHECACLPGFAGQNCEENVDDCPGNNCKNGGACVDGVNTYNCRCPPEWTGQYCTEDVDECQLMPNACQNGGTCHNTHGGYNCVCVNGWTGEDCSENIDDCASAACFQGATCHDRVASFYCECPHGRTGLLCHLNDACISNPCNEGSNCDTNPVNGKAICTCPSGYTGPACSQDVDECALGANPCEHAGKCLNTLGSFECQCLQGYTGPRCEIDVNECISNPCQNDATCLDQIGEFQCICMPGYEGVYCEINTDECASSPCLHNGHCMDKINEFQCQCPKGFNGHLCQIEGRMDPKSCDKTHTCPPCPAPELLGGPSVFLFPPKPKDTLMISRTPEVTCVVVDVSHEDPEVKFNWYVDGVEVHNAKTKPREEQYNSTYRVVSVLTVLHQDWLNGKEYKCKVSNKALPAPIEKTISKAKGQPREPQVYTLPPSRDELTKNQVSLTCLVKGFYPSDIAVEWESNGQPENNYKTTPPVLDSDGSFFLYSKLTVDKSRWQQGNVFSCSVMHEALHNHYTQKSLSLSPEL
# Procedure: To determine rmDLL4’s direct interaction with rmNotch1, surface plasmon resonance (OpenSPR, Nicoya) was performed. High-sensitivity nitrilotriacetic acid (HS-NTA) sensors were used. Binding reactions were performed in running buffer (PBS, 0.005% P20, pH 7.4). The HS-NTA sensor was first cleaned by injection with 10 mM HCl (150 μL) followed by injection of 150 μL of 350 mM EDTA. […] For the effect of NDI efficacy on rmDLL4 binding to rmNotch1, the same HS-NTA sensor was used. rmDLL4 at all the concentrations used for binding with rmNotch1 was preincubated with 1 μg/mL NDI for 30 minutes at room temperature, and then the complexes were injected to channels 1 and 2. Binding reactions were carried out with the same running buffer at a flow rate of 40 μL/min at 20°C. Channel 1 was used as a control to evaluate nonspecific binding. The real-time interaction data were analyzed by Trace Drawer (Nicoya). The signals from channel 1 were subtracted from channel 2 coated with the ligand for all samples. Data were globally fitted for 1:1 binding (one-to-one model).
# [5] = DLL4^+ neutrophil–stimulated PVECs
# [6] = DLL4^– neutrophil–treated PVECs
molecule,measurement,setting,value
"C[C@H](NC(=O)Cc1cc(F)cc(F)c1)C(=O)N[C@H](C(=O)OC(C)(C)C)c1ccccc1 [DAPT, N-[N-(3,5-difluorophenacetyl)-L-alanyl]-S-phenylglycine t-butyl ester, reference compound]",effect on ZBP1 mRNA,ZBP1 [1],reduced it to the baseline levels
same,effect on ZBP1,ZBP1 [2]; [5],significantly reduced the elevated expression
same,effect on ZBP1,ZBP1 [2]; [6],did not significantly reduce
same,effect on c-GSDMD,c-GSDMD; [5],significantly reduced the elevated expression
same,effect on c-GSDMD,c-GSDMD; [6],did not significantly reduce
same,effect on c-caspase-3,c-caspase-3; [5],significantly reduced the elevated expression
same,effect on c-caspase-3,c-caspase-3; [6],did not significantly reduce
same,effect on p-MLKL,p-MLKL; [5],significantly reduced the elevated expression
same,effect on p-MLKL,p-MLKL; [6],did not significantly reduce
Recombinant murine (rm) DLL4 (from UniProt Q9JI71 27-532) (ligand),KD with NDI present,[3],237 nM
same,Kd,[4],42.6 nM
B1,Kd,rmNotch1,42.6 nM
